In series [1] the test system is S. epidermidis. The series can be described thus: MIC test (NCCLS broth microdilution). It counts as cell-based, Staphylococcus epidermidis. As to the method:
(§1) Generally, the in vitro antimicrobial activities of antimicrobial agents were tested using standard NCCLS bacterial inhibition assays, or minimum inhibition concentration (MIC) tests. The MIC value is the lowest concentration of peptide at which the visible growth of test organisms is inhibited and reduced.
(§2) Briefly, overnight cultures of the test organisms were diluted to produce an inoculum containing approximately 10^5 colonies in Meuller-Hinton broth (MHB). From the peptide stock solution, serial two-dilutions of the peptides in 50 μl volume was prepared in a 96-well microtiter plate, and all wells were subsequently inoculated with the diluted culture of the test organisms. After 18 hours of incubation at 37° C., the results were assayed for turbidity (cell growth). MIC values were performed three times on different occasions (FIG. 2), and the median values are shown.
In general terms: In broth dilution the organism is exposed to a series of concentrations in liquid medium.

Series [2] concerns B. cereus. The series can be described thus: MIC test (NCCLS broth microdilution). It counts as cell-based, Bacillus cereus. As to the method: as §1, §2
Series [3] relates to P. aeruginosa. The experiment in a line: MIC test (NCCLS broth microdilution). It counts as cell-based, Pseudomonas aeruginosa. As to the method:
as §1, §2

Series [4] relates to E. coli. The series can be described thus: MIC test (NCCLS broth microdilution). It counts as cell-based. The method, then: (§3) The MIC value is the lowest concentration of peptide at which the visible growth of test organisms is inhibited and reduced.
as §2

Series [5] deals with B. pumilus. The series can be described thus: MIC test (NCCLS broth microdilution). Format: cell-based, Bacillus pumilus. As to the method: as §1, §2
The subject of series [6] is S. aureus. The series can be described thus: MIC test (NCCLS broth microdilution). Format: cell-based, Staphylococcus aureus. As to the method:
as §3, §2

Series [7] has as its system B. substiis. The experiment in a line: MIC test (NCCLS broth microdilution). Format: cell-based, Bacillus. substilis. As to the method:
as §1, §2

Series [8] deals with human red blood cells. The experiment in a line: Erythrocyte lysis (hemolysis). It counts as cell-based. The method, then: Pac 521-530 were tested for hemolysis against human red blood cells (RBC). The RBCs with EDTA were rinsed 3 times with PBS (800 g, 10 min) and resuspended in PBS. The RBCs were diluted into 10% with phosphate-buffered saline and placed 50 μl into each eppendorf. The peptides that dissolved in PBS were then added to 50 μl of 10% solution of RBCs and incubated for an hour at 37° C. (final RBC concentration, 5% v/v). The samples were centrifuged at 800 g for 10 min […]. Various concentrations of peptides were incubated with pretreated RBC and the percentage of hemolysis determined. […]

≈ marks a conversion by molar mass, not a printed value. Residues, ends and D or L forms follow the SMILES beside them.

The results in this text go back to patent US20040072990A1, “Antimicrobial peptides with reduced hemolysis and methods of their use” (priority 2002, published 2004).

In the case of `CC[C@H](C)[C@H](NC(=O)[C@H](Cc1ccccc1)NC(=O)[C@H](CCCNC(=N)N)NC(=O)[C@@H](NC(=O)[C@H](Cc1ccccc1)NC(=O)[C@H](CCCNC(=N)N)NC(=O)[C@H](CCCNC(=N)N)NC(=O)[C@H](Cc1ccccc1)NC(=O)[C@@H](N)CCCCN)C(C)C)C(N)=O` [Pac-527 L, K F R R F V R F I] (H-KFRRFVRFI-NH2; N-terminus assumed), the MIC (usually the lowest concentration found to suppress growth) in series [1] (1X Phosphate Buffer) worked out at 4 µg/mL (≈ 3.16 µM); in series [1] (Non Phosphate Buffer), 2 µg/mL (≈ 1.58 µM); in series [2] (1X Phosphate Buffer), 4 µg/mL (≈ 3.16 µM); in series [2] (Non Phosphate Buffer), 4 µg/mL (≈ 3.16 µM); in series [3] (1X Phosphate Buffer), 8 µg/mL (≈ 6.31 µM); in series [3] (Non Phosphate Buffer), 4 µg/mL (≈ 3.16 µM). The MIC in series [4] (1X Phosphate Buffer) was determined as 8 µg/mL (≈ 6.31 µM); in series [4] (Non Phosphate Buffer), 4 µg/mL (≈ 3.16 µM); in series [5] (1X Phosphate Buffer) it was 4 µg/mL (≈ 3.16 µM); in series [5] (Non Phosphate Buffer), 2 µg/mL (≈ 1.58 µM); in series [6] (1X Phosphate Buffer), 4 µg/mL (≈ 3.16 µM); in series [6] (Non Phosphate Buffer), 4 µg/mL (≈ 3.16 µM). The values for the MIC in series [7] (1X Phosphate Buffer) and in series [7] (Non Phosphate Buffer) were 2 µg/mL (≈ 1.58 µM) and 4 µg/mL (≈ 3.16 µM), respectively.

As to `CC[C@H](C)[C@H](NC(=O)[C@H](Cc1c[nH]c2ccccc12)NC(=O)[C@H](CCCCN)NC(=O)[C@@H](NC(=O)[C@H](Cc1c[nH]c2ccccc12)NC(=O)[C@@H](N)CCCCN)[C@@H](C)CC)C(N)=O` [Pac-305 L, K W I K W I] (H-KWIKWI-NH2; N-terminus and C-terminus assumed), in series [8], the “% lysis at 5 μg/ml” value stood at 0.74%, the “% lysis at 50 μg/ml” value turned out to be 7.2% and the “% lysis at 500 μg/ml” value turned out to be 15%.

With `CC[C@H](C)[C@H](NC(=O)[C@H](Cc1c[nH]c2ccccc12)NC(=O)[C@H](CCCNC(=N)N)NC(=O)[C@@H](NC(=O)[C@H](Cc1c[nH]c2ccccc12)NC(=O)[C@H](CCCNC(=N)N)NC(=O)[C@H](CCCNC(=N)N)NC(=O)[C@H](Cc1c[nH]c2ccccc12)NC(=O)[C@@H](N)CCCCN)C(C)C)C(N)=O` [Pac-525 L, K W R R W V R W I] (H-KWRRWVRWI-NH2; N-terminus and C-terminus assumed), in series [8], the “% lysis at 5 μg/ml” value was 0.81%, the “% lysis at 50 μg/ml” value came to 7.2% and the “% lysis at 500 μg/ml” value worked out at 14%. Besides, in series [8] (human RBC, in words), the “hemolysis against RBC compared with other antimicrobial peptides” value was “substantially less hemolytic”.

As for `CC[C@H](C)[C@H](NC(=O)[C@H](Cc1c[nH]c2ccccc12)NC(=O)[C@H](CCCNC(=N)N)NC(=O)[C@H](CCCNC(=N)N)NC(=O)[C@H](Cc1c[nH]c2ccccc12)NC(=O)[C@@H](N)CCCCN)C(N)=O` [Pac 301 L, K W R R W I] (H-KWRRWI-NH2; N-terminus and C-terminus assumed), in series [8], the “% lysis at 5 μg/ml” value is on record as 0.85%, the “% lysis at 50 μg/ml” value came out at 6.8% and the “% lysis at 500 μg/ml” value turned out to be 14%.
